Legend:
[1] = molecular target: T1, FK506 Binding Protein 12 kDa (FKBP12) (Homo sapiens, UniProt P62942); assay: TR-FRET tracer binding
[2] = molecular target: T1, FK506 Binding Protein 12 kDa (FKBP12); assay: TR-FRET competition with fluorescein-labeled SLF

T1 sequence (P62942 2-108): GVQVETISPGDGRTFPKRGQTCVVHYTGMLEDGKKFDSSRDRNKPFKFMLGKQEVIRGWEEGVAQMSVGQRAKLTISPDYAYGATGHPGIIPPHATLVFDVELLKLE

Row | IC50 [2] [nM] | Molecule | Kd [1] [nM]
1 |  | SLF-Fl | 30
2 | 200 | CCC(C)(C)C(=O)C(=O)N1CCCC[C@H]1C(=O)O[C@H](CCc1ccc(OC)c(OC)c1)c1cccc(OCC(=O)O)c1 [SLF-OH] | 
